How the values were obtained:
Assay in all cases: relative viability (nuclei count vs DMSO), 5 days (fraction); higher = more cells survive
Vismodegib + Dasatinib = compound: CS(=O)(=O)c1ccc(C(=O)Nc2ccc(Cl)c(-c3ccccn3)c2)c(Cl)c1 [Vismodegib] + Cc1nc(Nc2ncc(C(=O)Nc3c(C)cccc3Cl)s2)cc(N2CCN(CCO)CC2)n1 [Dasatinib] (partner 0.075 µM)
Summary of the method: (§1)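 The day after seeding in 1536-well plates, lung cancer cell lines were treated by pin tool with a single drug, or with a fixed anchor-drug dose together with five library-drug doses (not always all listed) in √10 steps. After 5 days, a combined fix-and-stain solution (final 0.05% Triton X-100, 1% formaldehyde, 1 ug/ml Hoechst) was added. Nuclei counted on 4× images gave relative viability as treated counts over vehicle counts, reported as the median of duplicate plates.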

Vismodegib + Crizotinib = compound: CS(=O)(=O)c1ccc(C(=O)Nc2ccc(Cl)c(-c3ccccn3)c2)c(Cl)c1 [Vismodegib] + C[C@@H](Oc1cc(-c2cnn(C3CCNCC3)c2)cnc1N)c1c(Cl)ccc(F)c1Cl [Crizotinib] (partner 1 µM)
Summary of the method: as §1

Vismodegib + Bortezomib = compound: CS(=O)(=O)c1ccc(C(=O)Nc2ccc(Cl)c(-c3ccccn3)c2)c(Cl)c1 [Vismodegib] + CC(C)C[C@H](NC(=O)[C@H](Cc1ccccc1)NC(=O)c1cnccn1)B(O)O [Bortezomib] (partner 0.002 µM)
Summary of the method: as §1

VE-821 + Bortezomib = compound: CS(=O)(=O)c1ccc(-c2cnc(N)c(C(=O)Nc3ccccc3)n2)cc1 [VE-821] + CC(C)C[C@H](NC(=O)[C@H](Cc1ccccc1)NC(=O)c1cnccn1)B(O)O [Bortezomib] (partner 0.002 µM)
Summary of the method: as §1

Cell Line | relative viability (Vismodegib + Dasatinib; first compound 0.08 µM) | relative viability (Vismodegib + Dasatinib; first compound 0.253 µM) | relative viability (Vismodegib + Dasatinib; first compound 0.8 µM) | relative viability (Vismodegib + Dasatinib; first compound 2.53 µM) | relative viability (Vismodegib + Dasatinib; first compound 8 µM) | relative viability (Vismodegib + Crizotinib; first compound 0.08 µM) | relative viability (Vismodegib + Crizotinib; first compound 0.253 µM) | relative viability (Vismodegib + Crizotinib; first compound 0.8 µM) | relative viability (Vismodegib + Crizotinib; first compound 2.53 µM) | relative viability (Vismodegib + Crizotinib; first compound 8 µM) | relative viability (Vismodegib + Bortezomib; first compound 0.08 µM) | relative viability (Vismodegib + Bortezomib; first compound 0.253 µM) | relative viability (Vismodegib + Bortezomib; first compound 0.8 µM) | relative viability (Vismodegib + Bortezomib; first compound 2.53 µM) | relative viability (Vismodegib + Bortezomib; first compound 8 µM) | relative viability (VE-821 + Bortezomib; first compound 0.08 µM) | relative viability (VE-821 + Bortezomib; first compound 0.253 µM) | relative viability (VE-821 + Bortezomib; first compound 0.8 µM) | relative viability (VE-821 + Bortezomib; first compound 2.53 µM) | relative viability (VE-821 + Bortezomib; first compound 8 µM)
NCI-H3122 | 0.871 | 0.823 | 0.811 | 0.862 | 0.867 | 0.307 | 0.286 | 0.255 | 0.295 | 0.268 | 1.03 | 1.05 | 1.01 | 0.986 | 0.935 | 1 | 1.02 | 1.01 | 1.02 | 1
PC-3 [JPC-3] | 0.947 | 0.985 | 1.03 | 0.974 | 0.924 | 0.93 | 0.991 | 0.964 | 0.93 | 0.956 | 0.827 | 0.929 | 0.786 | 0.766 | 0.93 | 0.871 | 0.884 | 0.932 | 0.884 | 0.842
NCI-H1355 | 0.686 | 0.723 | 0.591 | 0.771 | 0.689 | 1.04 | 0.995 | 1.02 | 1.07 | 1.09 | 1.23 | 1.18 | 1.12 | 1.1 | 1.11 | 1.26 | 1.15 | 1.09 | 1.27 | 0.718
NCI-H1792 | 0.697 | 0.726 | 0.673 | 0.505 | 0.655 | 0.93 | 0.939 | 0.976 | 0.986 | 0.907 | 0.953 | 0.974 | 0.929 | 0.946 | 0.93 | 1.25 | 1.05 | 0.938 | 1.01 | 0.947
NCI-H838 | 0.213 | 0.275 | 0.303 | 0.285 | 0.319 | 0.816 | 0.787 | 0.885 | 0.821 | 0.848 | 0.603 | 1.11 | 0.679 | 0.817 | 1.05 | 0.912 | 0.855 | 0.485 | 1.22 | 0.652

— the supplement of paper PMC10307832
